Data: ChEMBL document CHEMBL4507263, “Data for DCP probe BAY-474” (2021)

Assays:
[1] = target: Sodium-dependent serotonin transporter (Homo sapiens) (UniProt P31645); conditions: Compound concentration 10.0 uM
[2] = target: Mitogen-activated protein kinase 8 (Homo sapiens) (UniProt P45983); experiment: JNK1alpha1 (h) Millipore kinase activity assay; conditions: Compound concentration 1.0 uM
[3] = target: Casein kinase I isoform delta (Homo sapiens) (UniProt P48730); experiment: CK1delta (h) Millipore kinase activity assay; conditions: Compound concentration 1.0 uM
[4] = target: Platelet-activating factor receptor (Homo sapiens) (UniProt P25105); experiment: Inhibition of Platelet Activating Factor (PAF) at 10 µM in the Eurofins-Panlabs radioligand binding assay (Eurofins_assay_265010); conditions: Compound concentration 10.0 uM
[5] = target: Eukaryotic elongation factor 2 kinase (Homo sapiens) (UniProt O00418); experiment: eEF-2K (h) Millipore kinase activity assay; conditions: Compound concentration 1.0 uM
[6] = target: Myotonin-protein kinase (Homo sapiens) (UniProt Q09013); experiment: DMPK (h) Millipore kinase activity assay; conditions: Compound concentration 1.0 uM
[7] = target: Serine/threonine-protein kinase BRSK2 (Homo sapiens) (UniProt Q8IWQ3); experiment: BrSK2 (h) Millipore kinase activity assay; conditions: Compound concentration 1.0 uM
[8] = target: Ephrin type-B receptor 3 (Homo sapiens) (UniProt P54753); experiment: EphB3 (h) Millipore kinase activity assay; conditions: Compound concentration 1.0 uM
[9] = species on record: Rattus norvegicus; experiment: Inhibition of Imidazoline I2, Central at 10 µM in the Eurofins-Panlabs radioligand binding assay (Eurofins_assay_241000); set-up: ligand concentration 2 nM; conditions: Compound concentration 10.0 uM
[10] = target: Kappa-type opioid receptor (Homo sapiens) (UniProt P41145); conditions: Compound concentration 10.0 uM
[11] = target: Muscarinic acetylcholine receptor M3 (Homo sapiens) (UniProt P20309); conditions: Compound concentration 10.0 uM
[12] = target: Tyrosine-protein kinase FRK (Homo sapiens) (UniProt P42685); experiment: PTK5 (h) Millipore kinase activity assay; conditions: Compound concentration 1.0 uM
[13] = target: Activated CDC42 kinase 1 (Homo sapiens) (UniProt Q07912); experiment: ACK1 (h) Millipore kinase activity assay; conditions: Compound concentration 1.0 uM
[14] = target: Dual specificity tyrosine-phosphorylation-regulated kinase 2 (Homo sapiens) (UniProt Q92630); experiment: DYRK2 (h) Millipore kinase activity assay; conditions: Compound concentration 1.0 uM
[15] = target: MAP kinase-activated protein kinase 5 (Homo sapiens) (UniProt Q8IW41); experiment: PRAK (h) Millipore kinase activity assay; conditions: Compound concentration 1.0 uM
[16] = target: Cyclin-dependent kinase 5/CDK5 activator 1 (Homo sapiens) (UniProt Q00535+Q15078); experiment: CDK5/p35 (h) Millipore kinase activity assay; type: protein-complex assay; conditions: Compound concentration 1.0 uM
[17] = target: Ephrin type-A receptor 5 (Homo sapiens) (UniProt P54756); experiment: EphA5 (h) Millipore kinase activity assay; conditions: Compound concentration 1.0 uM
[18] = target: Casein kinase I isoform gamma-1 (Homo sapiens) (UniProt Q9HCP0); experiment: CK1gamma1 (h) Millipore kinase activity assay; conditions: Compound concentration 1.0 uM
[19] = target: Interleukin-1 receptor-associated kinase 4 (Homo sapiens) (UniProt Q9NWZ3); experiment: IRAK4 (h) Millipore kinase activity assay; conditions: Compound concentration 1.0 uM
[20] = target: hERG (KCNH2) (Homo sapiens, UniProt Q12809); experiment: Inhibition of Potassium Channel hERG at 10 µM in the Eurofins-Panlabs radioligand binding assay (Eurofins_assay_265900); set-up: ligand concentration 1.5 nM, non-specific ligand with concentration Astemizole, incubation time 60 min, incubation temperature 25 °C; conditions: HEK-293 cells expressing human recombinant hERG, probe [3H] Astemizole, compound concentration 10 uM
[21] = target: Calcium/calmodulin-dependent protein kinase type 1 (Homo sapiens) (UniProt Q14012); conditions: Compound concentration 1000.0 nM
[22] = target: Serine/threonine-protein kinase 10 (Homo sapiens) (UniProt O94804); conditions: Compound concentration 1000.0 nM
[23] = target: Protein kinase C theta type (Homo sapiens) (UniProt Q04759); conditions: Compound concentration 1000.0 nM
[24] = target: Proto-oncogene tyrosine-protein kinase ROS (Homo sapiens) (UniProt P08922); conditions: Compound concentration 1000.0 nM
[25] = target: Ephrin type-A receptor 7 (Homo sapiens) (UniProt Q15375); conditions: Compound concentration 1000.0 nM
[26] = target: Tyrosine-protein kinase ABL1 (Homo sapiens) (UniProt P00519); conditions: Compound concentration 1000.0 nM
[27] = target: Cyclin-dependent kinase 11A (Homo sapiens) (UniProt Q9UQ88); conditions: Compound concentration 1000.0 nM
[28] = target: Serine/threonine-protein kinase N2 (Homo sapiens) (UniProt Q16513); conditions: Compound concentration 1000.0 nM
[29] = target: Serine/threonine-protein kinase/endoribonuclease IRE1 (Homo sapiens) (UniProt O75460); conditions: Compound concentration 1000.0 nM
[30] = target: Dual specificity mitogen-activated protein kinase kinase 3 (Homo sapiens) (UniProt P46734); conditions: Compound concentration 1000.0 nM
[31] = target: Ribosomal protein S6 kinase alpha-2 (Homo sapiens) (UniProt Q15349); conditions: Compound concentration 1000.0 nM
[32] = target: Serine/threonine-protein kinase MARK1 (Homo sapiens) (UniProt Q9P0L2); conditions: Compound concentration 1000.0 nM
[33] = target: 5-hydroxytryptamine receptor 2B (Homo sapiens) (UniProt P41595); conditions: Compound concentration 10.0 uM
[34] = target: Casein kinase I isoform gamma-3 (Homo sapiens) (UniProt Q9Y6M4); conditions: Compound concentration 1000.0 nM
[35] = target: Activin receptor type-1-like (Homo sapiens) (UniProt P37023); conditions: Compound concentration 1000.0 nM
[36] = target: Proto-oncogene tyrosine-protein kinase Src (Homo sapiens) (UniProt P12931); conditions: Compound concentration 1000.0 nM
[37] = target: 5-hydroxytryptamine receptor 5A (Homo sapiens) (UniProt P47898); conditions: Compound concentration 10.0 uM
[38] = target: cAMP-dependent protein kinase catalytic subunit beta (Homo sapiens) (UniProt P22694); conditions: Compound concentration 1000.0 nM
[39] = target: Cyclin-dependent kinase 4 (Homo sapiens) (UniProt P11802); conditions: Compound concentration 1000.0 nM
[40] = target: Interleukin-1 receptor-associated kinase 1 (Homo sapiens) (UniProt P51617); conditions: Compound concentration 1000.0 nM
[41] = tested on: Serine/threonine-protein kinase B-raf (Homo sapiens), P15056 [V600E]; conditions: Compound concentration 1000.0 nM
[42] = target: Serine/threonine-protein kinase NIM1 (Homo sapiens) (UniProt Q8IY84); conditions: Compound concentration 1000.0 nM
[43] = target: Serine/threonine-protein kinase Nek10 (Homo sapiens) (UniProt Q6ZWH5); conditions: Compound concentration 1000.0 nM
[44] = target: Serine/threonine-protein kinase 3 (Homo sapiens) (UniProt Q13188); conditions: Compound concentration 1000.0 nM

Chain of Ribosomal protein S6 kinase alpha-2 (Homo sapiens) (Q15349 whole entry): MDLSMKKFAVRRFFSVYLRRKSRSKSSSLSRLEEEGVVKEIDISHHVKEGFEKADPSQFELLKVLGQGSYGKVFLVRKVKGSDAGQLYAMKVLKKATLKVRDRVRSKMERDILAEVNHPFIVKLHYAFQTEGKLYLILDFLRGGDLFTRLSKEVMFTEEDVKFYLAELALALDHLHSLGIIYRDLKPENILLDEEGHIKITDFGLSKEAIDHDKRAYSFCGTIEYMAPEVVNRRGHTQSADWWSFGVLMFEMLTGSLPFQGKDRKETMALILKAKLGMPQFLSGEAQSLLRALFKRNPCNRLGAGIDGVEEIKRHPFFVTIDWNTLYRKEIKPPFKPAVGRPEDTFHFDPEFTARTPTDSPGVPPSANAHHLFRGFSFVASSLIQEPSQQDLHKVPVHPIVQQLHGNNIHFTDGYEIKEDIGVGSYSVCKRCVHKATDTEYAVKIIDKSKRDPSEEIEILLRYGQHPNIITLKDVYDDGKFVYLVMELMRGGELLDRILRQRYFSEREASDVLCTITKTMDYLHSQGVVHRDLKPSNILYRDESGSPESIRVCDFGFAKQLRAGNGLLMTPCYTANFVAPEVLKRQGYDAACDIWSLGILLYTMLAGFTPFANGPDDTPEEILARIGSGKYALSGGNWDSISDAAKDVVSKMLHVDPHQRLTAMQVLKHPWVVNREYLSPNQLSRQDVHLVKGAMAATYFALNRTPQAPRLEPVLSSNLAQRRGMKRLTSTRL
Chain of 5-hydroxytryptamine receptor 2B (Homo sapiens) (P41595 whole entry, canonical isoform): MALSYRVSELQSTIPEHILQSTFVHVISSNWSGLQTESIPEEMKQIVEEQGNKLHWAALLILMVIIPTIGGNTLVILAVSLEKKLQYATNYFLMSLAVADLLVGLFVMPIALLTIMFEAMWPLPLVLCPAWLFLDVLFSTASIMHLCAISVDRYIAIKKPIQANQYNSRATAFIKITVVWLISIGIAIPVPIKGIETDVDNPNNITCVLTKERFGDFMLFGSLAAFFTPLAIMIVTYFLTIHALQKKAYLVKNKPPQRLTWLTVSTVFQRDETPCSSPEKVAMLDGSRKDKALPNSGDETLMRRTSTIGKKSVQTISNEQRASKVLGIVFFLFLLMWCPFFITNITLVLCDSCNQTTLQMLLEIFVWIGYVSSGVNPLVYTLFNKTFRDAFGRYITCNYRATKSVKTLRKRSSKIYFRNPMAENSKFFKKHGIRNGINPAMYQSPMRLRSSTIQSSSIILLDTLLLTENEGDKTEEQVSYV
Chain of Tyrosine-protein kinase ABL1 (Homo sapiens) (P00519 whole entry): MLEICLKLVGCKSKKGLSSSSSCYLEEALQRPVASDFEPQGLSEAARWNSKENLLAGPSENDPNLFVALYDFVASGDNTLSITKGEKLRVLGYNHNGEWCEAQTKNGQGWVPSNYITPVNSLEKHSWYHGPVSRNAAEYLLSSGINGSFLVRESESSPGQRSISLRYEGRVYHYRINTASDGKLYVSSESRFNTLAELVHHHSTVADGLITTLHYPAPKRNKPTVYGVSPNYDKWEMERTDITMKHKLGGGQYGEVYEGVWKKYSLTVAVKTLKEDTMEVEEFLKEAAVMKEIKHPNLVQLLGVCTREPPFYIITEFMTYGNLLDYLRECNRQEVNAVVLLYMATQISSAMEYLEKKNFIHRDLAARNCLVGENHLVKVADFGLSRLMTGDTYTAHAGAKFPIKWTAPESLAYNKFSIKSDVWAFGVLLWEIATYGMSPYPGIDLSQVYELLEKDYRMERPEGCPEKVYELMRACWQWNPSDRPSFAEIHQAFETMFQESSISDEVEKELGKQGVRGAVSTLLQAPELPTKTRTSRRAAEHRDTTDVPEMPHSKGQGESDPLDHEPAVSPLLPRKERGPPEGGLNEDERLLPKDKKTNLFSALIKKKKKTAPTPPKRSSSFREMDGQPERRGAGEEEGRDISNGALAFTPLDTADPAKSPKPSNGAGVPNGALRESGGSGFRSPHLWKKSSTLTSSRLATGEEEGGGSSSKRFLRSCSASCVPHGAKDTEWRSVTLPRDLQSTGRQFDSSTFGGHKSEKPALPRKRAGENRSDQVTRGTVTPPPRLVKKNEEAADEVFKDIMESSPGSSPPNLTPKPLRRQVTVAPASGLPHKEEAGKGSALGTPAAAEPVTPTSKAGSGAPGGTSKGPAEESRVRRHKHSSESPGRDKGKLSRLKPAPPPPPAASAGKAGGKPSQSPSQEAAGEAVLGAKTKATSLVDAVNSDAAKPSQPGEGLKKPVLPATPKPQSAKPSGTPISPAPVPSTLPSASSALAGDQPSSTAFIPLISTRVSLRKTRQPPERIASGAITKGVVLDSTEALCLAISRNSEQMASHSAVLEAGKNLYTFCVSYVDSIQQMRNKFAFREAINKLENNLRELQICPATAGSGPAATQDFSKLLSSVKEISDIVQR
Chain of Cyclin-dependent kinase 11A (Homo sapiens) (Q9UQ88 whole entry): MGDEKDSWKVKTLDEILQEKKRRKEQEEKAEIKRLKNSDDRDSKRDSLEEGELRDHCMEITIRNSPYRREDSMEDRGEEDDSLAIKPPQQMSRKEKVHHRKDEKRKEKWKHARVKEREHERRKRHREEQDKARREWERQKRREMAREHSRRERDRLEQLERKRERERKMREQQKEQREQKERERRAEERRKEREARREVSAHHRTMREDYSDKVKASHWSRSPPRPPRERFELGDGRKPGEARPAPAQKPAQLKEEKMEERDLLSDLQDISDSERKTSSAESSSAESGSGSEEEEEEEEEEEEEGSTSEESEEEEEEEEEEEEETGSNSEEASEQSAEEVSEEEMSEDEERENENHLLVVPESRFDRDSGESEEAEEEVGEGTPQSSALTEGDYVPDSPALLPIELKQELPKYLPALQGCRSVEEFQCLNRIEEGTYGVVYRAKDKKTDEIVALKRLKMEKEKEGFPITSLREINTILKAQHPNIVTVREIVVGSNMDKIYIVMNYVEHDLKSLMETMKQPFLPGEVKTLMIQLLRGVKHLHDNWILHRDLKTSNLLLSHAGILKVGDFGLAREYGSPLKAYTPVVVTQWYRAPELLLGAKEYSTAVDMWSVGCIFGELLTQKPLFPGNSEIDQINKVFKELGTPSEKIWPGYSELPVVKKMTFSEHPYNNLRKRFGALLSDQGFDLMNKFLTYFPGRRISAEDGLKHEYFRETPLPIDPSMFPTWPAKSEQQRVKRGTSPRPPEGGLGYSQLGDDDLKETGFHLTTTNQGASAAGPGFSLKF
Chain of Myotonin-protein kinase (Homo sapiens) (Q09013 whole entry): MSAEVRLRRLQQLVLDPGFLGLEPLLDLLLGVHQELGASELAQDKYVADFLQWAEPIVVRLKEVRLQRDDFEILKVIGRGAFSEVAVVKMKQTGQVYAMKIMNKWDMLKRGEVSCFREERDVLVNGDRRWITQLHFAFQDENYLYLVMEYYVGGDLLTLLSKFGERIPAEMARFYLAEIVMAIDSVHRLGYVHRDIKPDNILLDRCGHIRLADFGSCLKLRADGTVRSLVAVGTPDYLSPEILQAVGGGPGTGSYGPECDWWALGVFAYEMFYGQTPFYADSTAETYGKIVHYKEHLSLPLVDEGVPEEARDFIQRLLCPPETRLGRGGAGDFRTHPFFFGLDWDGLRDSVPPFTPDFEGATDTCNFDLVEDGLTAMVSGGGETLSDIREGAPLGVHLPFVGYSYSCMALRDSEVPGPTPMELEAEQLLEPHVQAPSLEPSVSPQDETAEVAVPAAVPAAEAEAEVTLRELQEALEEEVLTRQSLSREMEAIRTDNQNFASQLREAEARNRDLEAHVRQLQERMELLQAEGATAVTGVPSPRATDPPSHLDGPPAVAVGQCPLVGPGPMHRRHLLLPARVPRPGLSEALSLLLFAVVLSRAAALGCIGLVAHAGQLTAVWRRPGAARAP
Chain of Kappa-type opioid receptor (Homo sapiens) (P41145 whole entry): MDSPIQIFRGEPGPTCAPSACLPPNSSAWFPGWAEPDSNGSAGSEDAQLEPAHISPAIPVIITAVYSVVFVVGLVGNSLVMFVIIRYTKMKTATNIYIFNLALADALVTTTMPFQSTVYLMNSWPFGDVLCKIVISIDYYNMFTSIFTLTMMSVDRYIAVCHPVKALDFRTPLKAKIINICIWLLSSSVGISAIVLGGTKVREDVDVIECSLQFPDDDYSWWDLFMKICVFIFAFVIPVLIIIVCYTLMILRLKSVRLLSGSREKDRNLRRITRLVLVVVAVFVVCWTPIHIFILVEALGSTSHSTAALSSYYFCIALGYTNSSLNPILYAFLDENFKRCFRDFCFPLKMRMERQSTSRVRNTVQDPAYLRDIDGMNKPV
Chain of Casein kinase I isoform gamma-1 (Homo sapiens) (Q9HCP0 whole entry, looked up, canonical isoform): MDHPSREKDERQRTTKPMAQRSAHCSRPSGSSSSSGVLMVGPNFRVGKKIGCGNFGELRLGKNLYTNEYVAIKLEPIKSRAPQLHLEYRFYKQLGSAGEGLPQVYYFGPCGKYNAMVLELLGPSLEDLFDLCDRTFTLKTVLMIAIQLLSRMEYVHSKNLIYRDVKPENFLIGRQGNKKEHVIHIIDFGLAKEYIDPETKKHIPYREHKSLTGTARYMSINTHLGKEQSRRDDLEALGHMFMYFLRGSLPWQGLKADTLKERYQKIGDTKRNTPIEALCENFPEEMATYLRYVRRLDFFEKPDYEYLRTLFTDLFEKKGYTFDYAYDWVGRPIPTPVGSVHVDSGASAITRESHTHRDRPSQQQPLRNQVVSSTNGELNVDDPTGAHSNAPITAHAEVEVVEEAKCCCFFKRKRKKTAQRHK
Chain of Casein kinase I isoform gamma-3 (Homo sapiens) (Q9Y6M4 whole entry, looked up, canonical isoform): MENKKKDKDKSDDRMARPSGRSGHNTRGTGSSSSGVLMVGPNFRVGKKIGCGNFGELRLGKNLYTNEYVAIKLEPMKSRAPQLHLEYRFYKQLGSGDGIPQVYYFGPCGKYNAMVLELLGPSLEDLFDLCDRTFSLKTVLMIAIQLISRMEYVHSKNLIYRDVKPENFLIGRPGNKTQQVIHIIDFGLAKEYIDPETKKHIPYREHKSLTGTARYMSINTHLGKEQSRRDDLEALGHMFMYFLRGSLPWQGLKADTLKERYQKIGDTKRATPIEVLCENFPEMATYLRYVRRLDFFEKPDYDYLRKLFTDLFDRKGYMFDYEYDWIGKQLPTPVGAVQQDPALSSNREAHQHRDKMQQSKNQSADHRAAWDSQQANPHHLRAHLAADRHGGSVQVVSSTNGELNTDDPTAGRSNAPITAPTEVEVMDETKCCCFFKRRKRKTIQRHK

`CC1=C(C#N)C(c2ccc3[nH]nc(C)c3c2)C(C#N)=C(C)N1` [BAY-474] was tested, and the inhibition [1] was 9%, the inhibition [2] was -8% and the inhibition [3] was 3%. For the same compound, the inhibition [4] was 6%, the inhibition [5] was -5% and the inhibition [6] was 3%. It also gave an inhibition [7] of 21%, an inhibition [8] of -5% and an inhibition [9] of 5%. It also gave an inhibition [10] of 8.26%, an inhibition [11] of 2% and an inhibition [12] of 2%. The inhibition [13] was 2%, the inhibition [14] was -8% and the inhibition [15] was 6%. It also gave an inhibition [16] of -1%, an inhibition [17] of -1% and an inhibition [18] of -9%. For the same compound, the inhibition [19] was 0% and the inhibition at 60 min, 10 µM [20] was 7% (not active).
Work on `CC1=C(C#N)[C@@H](c2ccc3[nH]nc(C)c3c2)C(C#N)=C(c2ccc(Cl)cc2)N1` [BAY-827] yielded a residual activity [21] of 100%, a residual activity [22] of 100% and a residual activity [23] of 100%. For the same compound, the residual activity [24] was 100%, the residual activity [25] was 91.2% and the residual activity [26] was 82.9%. For the same compound, the residual activity [27] was 90%, the residual activity [28] was 74.6% and the residual activity [29] was 100%. For the same compound, the residual activity [30] was 53.5%, the residual activity [31] was 85.4% and the residual activity [32] was 91.1%. The inhibition [33] was -7.44%, the residual activity [34] was 100% and the residual activity [35] was 79%. For the same compound, the residual activity [36] was 100%, the inhibition [37] was 4.53% and the residual activity [38] was 81.5%. For the same compound, the residual activity [39] was 78.8%, the residual activity [40] was 100% and the residual activity [41] was 100%. The residual activity [42] was 100%, the residual activity [43] was 59.6% and the residual activity [44] was 100%.
